Measured values published in patent US10633375B2, “Oxopicolinamide derivative, preparation method therefor and pharmaceutical use thereof” (Jiangsu Hengrui Medicine Co., Ltd., priority 2016, dated 2020).

Legend:
[1] = biological target: Coagulation Factor XIa protease (Homo sapiens (Human), UniProt P03951); experiment: Inhibition of Factor XIa detected by absorption photometry; type: biochemical; details: absorbance at 405 nm, 10 minutes at 37° C.
Outline: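 Read-out was absorbance at 405 nm after 10 min incubation at 37° C. Compound dilutions in 100% DMSO (200 to 0.002 μM) were combined with FXIa (2.5 μg/ml solution), then FXIa-specific chromogenic substrate (2 mM solution) was added; both are stock concentrations, not final.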

human blood = experiment: In vitro anticoagulant effect on human blood (APTT, CT2); details: concentration corresponding to 2 times the APTT of the blank control, human plasma
Experimental: Test Example 2: Determination of In Vitro Anticoagulant Effect of the Compounds of the Present Invention on Human Blood
1. Experimental Materials
Plasma: Human blood was collected in blood collection tubes containing no anticoagulant, and then 3.8% sodium citrate (volume ratio 1:9) was added. The tubes were centrifuged at 2500 rpm for 10 minutes at room temperature, and then the plasma was collected and stored at −80° C.;
Reagents: APTT reagent (Activated partial thromboplastin time assay kit, SIEMENS, Art. No. B4218-1), calcium chloride solution;
Instrument: Coagulation instrument (SYSMEX, CA-500).
The divided plasma was melted at room temperature and mixed well. 10000 μM the test compound dissolved in 100% DMSO was diluted to 3000, 300, 200, 150, 75, 30, 10, 3, 0.3 μM with 100% DMSO, and the blank was 100% DMSO. The reagent, plasma, and compound were placed in corresponding positions in the coagulation instrument, and APTT detection of the compound was carried out.
Curve fitting was carried out by graphpad and CT2 was calculated, i.e., the concentration of the compound corresponding to 2 times the APTT of the blank control.

Chain of Coagulation Factor XIa protease (P03951 388-625): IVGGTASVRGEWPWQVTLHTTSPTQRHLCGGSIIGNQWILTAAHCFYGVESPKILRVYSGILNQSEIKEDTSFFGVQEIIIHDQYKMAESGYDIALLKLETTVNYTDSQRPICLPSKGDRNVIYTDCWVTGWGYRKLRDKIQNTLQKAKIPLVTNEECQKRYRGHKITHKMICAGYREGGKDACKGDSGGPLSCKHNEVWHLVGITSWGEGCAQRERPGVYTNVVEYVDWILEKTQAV
Chain of Coagulation Factor XIa protease (P03951 19-387 partner): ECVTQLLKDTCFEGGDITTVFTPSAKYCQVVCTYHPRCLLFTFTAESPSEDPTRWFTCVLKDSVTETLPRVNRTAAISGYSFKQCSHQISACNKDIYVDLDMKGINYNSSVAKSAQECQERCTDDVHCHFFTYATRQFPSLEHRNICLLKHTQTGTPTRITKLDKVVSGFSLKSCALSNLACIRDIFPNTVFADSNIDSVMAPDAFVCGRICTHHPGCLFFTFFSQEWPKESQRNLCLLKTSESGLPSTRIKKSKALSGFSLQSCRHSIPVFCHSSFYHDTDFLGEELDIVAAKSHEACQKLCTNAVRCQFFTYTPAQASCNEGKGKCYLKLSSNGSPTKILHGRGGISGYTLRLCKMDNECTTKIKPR

Row | Structure (SMILES) | IC50 [1] | CT2, concentration doubling APTT (human blood; Table 2) | CT2, concentration doubling APTT (human blood; Table 3 comparison)
1 | COc1cn(C(Cc2ccn(C3CC3)n2)C(=O)Nc2ccc3nccnc3c2)c(=O)cc1-c1cc(Cl)ccc1C(C)=O (centres unmarked) [Example 96, 2-(4-(2-acetyl-5-chlorophenyl)-5-methoxy-2-oxopyridin-1(2H)-yl)-3-(1-cyclopropyl-1H-pyrazol-3-yl)-N-(quinoxalin-6-yl)propanamide] | 32 nM | 6.7 µM | –
2 | COc1cn(C(Cc2ccn(C)n2)C(=O)Nc2ccc(C(=O)O)cc2)c(=O)cc1-c1cc(Cl)ccc1C(C)=O (centres unmarked) [Example 100, 4-(2-(4-(2-acetyl-5-chlorophenyl)-5-methoxy-2-oxopyridin-1(2H)-yl)-3-(1-methyl-1H-pyrazol-3-yl)propanamido)benzoic acid] | 35 nM | 3.3 µM | –
3 | COc1cn([C@@H](Cc2cnn(C)c2)C(=O)Nc2ccc(C(=O)O)cc2)c(=O)cc1-c1cc(Cl)ccc1C(C)=O [Example 105, (S)-4-(2-(4-(2-acetyl-5-chlorophenyl)-5-methoxy-2-oxopyridin-1(2H)-yl)-3-(1-methyl-1H-pyrazol-4-yl)propanamido)benzoic acid] | 30 nM | 6.9 µM | –
4 | CCC(=O)c1ccc(Cl)cc1-c1cc(=O)n(C(Cc2ccn(C)n2)C(=O)Nc2ccc(C(=O)O)cc2)cc1OC (centres unmarked) [Example 99, 4-(2-(4-(5-chloro-2-propionylphenyl)-5-methoxy-2-oxopyridin-1(2H)-yl)-3-(1-methyl-1H-pyrazol-3-yl)propanamido)benzoic acid] | 29 nM | 3.5 µM | –
5 | [2H]C([2H])([2H])Oc1cn([C@H](CCOC(C)(C)C)C(=O)Nc2ccc(C(=O)O)cc2)c(=O)cc1-c1cc(Cl)ccc1C(=O)CC [Example 178, 4-[[(2R)-4-tert-butoxy-2-[4-(5-chloro-2-propionyl-phenyl)-2-oxo-5-(trideuteromethoxy)-1-pyridyl]butyryl]amino]benzoic acid] | – | >10000 µM | –
6 | COCC[C@@H](C(=O)Nc1ccc2[nH]c(C(=O)O)cc2c1)n1cc(OC)c(-c2cc(Cl)ccc2C(C)=O)cc1=O [Example 2, (S)-5-(2-(4-(2-acetyl-5-chlorophenyl)-5-methoxy-2-oxopyridin-1(2H)-yl)-4-methoxybutanamido)-1H-indole-2-carboxylic acid] | 19 nM | 2.9 µM | –
7 | COCCC(C(=O)Nc1ccc2[nH]c(C(=O)O)cc2c1)n1cc(OC)c(-c2cc(Cl)ccc2C(C)=O)cc1=O (centres unmarked) [Example 1, 5-(2-(4-(2-acetyl-5-chlorophenyl)-5-methoxy-2-oxopyridin-1(2H)-yl)-4-methoxybutanamido)-1H-indole-2-carboxylic acid] | 34 nM | 4.4 µM | –
8 | [2H]C([2H])([2H])Oc1cn([C@H](Cc2ccccc2)C(=O)Nc2ccc(C(=O)O)cc2)c(=O)cc1-c1cc(Cl)ccc1C(C)=O [Example 180, 4-[[(2R)-2-[4-(2-acetyl-5-chloro-phenyl)-2-oxo-5-(trideuteromethoxy)-1-pyridyl]-3-phenyl-propionyl]amino]benzoic acid] | – | >10000 µM | –
9 | COc1cn([C@@H](Cc2cccc(C#N)c2)C(=O)Nc2ccc(C(=O)O)cc2)c(=O)cc1-c1cc(Cl)ccc1C(C)=O [Example 89, (S)-4-(2-(4-(2-acetyl-5-chlorophenyl)-5-methoxy-2-oxopyridin-1(2H)-yl)-3-(3-cyanophenyl)propanamido)benzoic acid] | 42 nM | 5.7 µM | –
10 | [2H]C([2H])([2H])Oc1cn([C@@H](CCOC(C)(C)C)C(=O)Nc2ccc(C(=O)O)cc2)c(=O)cc1-c1cc(Cl)ccc1C(=O)CC [Example 177, 4-[[(2S)-4-tert-butoxy-2-[4-(5-chloro-2-propionyl-phenyl)-2-oxo-5-(trideuteromethoxy)-1-pyridyl]butyryl]amino]benzoic acid] | – | 1.5 µM | –
11 | [2H]C([2H])([2H])Oc1cn([C@@H](Cc2ccccc2)C(=O)Nc2ccc(C(=O)O)cc2)c(=O)cc1-c1cc(Cl)ccc1C(C)=O [Example 179, 4-[[(2S)-2-[4-(2-acetyl-5-chloro-phenyl)-2-oxo-5-(trideuteromethoxy)-1-pyridyl]-3-phenyl-propionyl]amino]benzoic acid] | – | 3.3 µM | –
12 | [2H]C([2H])([2H])C(=O)c1ccc(Cl)cc1-c1cc(=O)n([C@@H](Cc2ccccc2)C(=O)Nc2ccc(C(=O)O)cc2)cc1OC [Example 183, 4-[[(2S)-2-[4-[5-chloro-2-(2,2,2-trideuteroacetyl)phenyl]-5-methoxy-2-oxo-1-pyridyl]-3-phenyl-propionyl]amino]benzoic acid] | – | 2.6 µM | –
13 | [2H]C([2H])([2H])C(=O)c1ccc(Cl)cc1-c1cc(=O)n([C@H](Cc2ccccc2)C(=O)Nc2ccc(C(=O)O)cc2)cc1OC [Example 184, 4-[[(2R)-2-[4-[5-chloro-2-(2,2,2-trideuteroacetyl)phenyl]-5-methoxy-2-oxo-1-pyridyl]-3-phenyl-propionyl]amino]benzoic acid] | – | >10000 µM | –
14 | CCC(=O)c1ccc(Cl)cc1-c1cc(=O)n([C@@H](Cc2ccn(C3CC3)n2)C(=O)Nc2ccc(C(=O)O)cc2)cc1OC [Example 92, (S)-4-(2-(4-(5-chloro-2-propionylphenyl)-5-methoxy-2-oxopyridin-1 (2H)-yl)-3-(1-cyclopropyl-1H-pyrazol-3-yl)propanamido)benzoic acid] | – | 1.2 µM | –
15 | COc1cn([C@H](Cc2ccccc2)C(=O)Nc2ccc(C(=O)O)cc2)c(=O)cc1-c1cc(Cl)ccc1C(C)=O [Example 6, (R)-4-(2-(4-(2-acetyl-5-chlorophenyl)-5-methoxy-2-oxopyridin-1(2H)-yl)-3-phenylpropanamido)benzoic acid] | – | >10000 µM | –
16 | [2H]c1c([2H])c([2H])c(C([2H])([2H])[C@@H](C(=O)Nc2ccc(C(=O)O)cc2)n2cc(OC)c(-c3cc(Cl)ccc3C(C)=O)cc2=O)c([2H])c1[2H] [Example 181, 4-[[(2S)-2-[4-(2-acetyl-5-chloro-phenyl)-5-methoxy-2-oxo-1-pyridyl]-3,3-dideutero-3-(2,3,4,5,6-pentadeuterophenyl)propionyl]amino]benzoic acid] | – | 2.3 µM | –
17 | CCC(=O)c1ccc(Cl)cc1-c1cc(=O)n([C@H](CCOC(C)(C)C)C(=O)Nc2ccc(C(=O)O)cc2)cc1OC [Example 109, (R)-4-(4-(tert-butoxy)-2-(4-(5-chloro-2-propionylphenyl)-5-methoxy-2-oxopyridin-1(2H)-yl)butanamido)benzoic acid] | – | >10000 µM | –
18 | COc1cn([C@@H](CCOC(C)(C)C)C(=O)Nc2ccc3nccnc3c2)c(=O)cc1-c1cc(Cl)ccc1-c1nc(C)no1 [Comparative Example 2, (S)-4-(tert-butoxy)-2-(4-(5-chloro-2-(3-methyl-1,2,4-oxadiazol-5-yl)phenyl)-5-methoxy-2-oxopyridin-1 (2H)-yl)-N-(quinoxalin-6-yl)butanamide, reference compound] | – | – | 13.1 µM
19 | CCC(=O)c1ccc(Cl)cc1-c1cc(=O)n(C(Cc2ccn(C3CC3)n2)C(=O)Nc2ccc(C(=O)O)cc2)cc1OC (centres unmarked) [Example 91, 4-(2-(4-(5-chloro-2-propionylphenyl)-5-methoxy-2-oxopyridin-1 (2H)-yl)-3-(1-cyclopropyl-1H-pyrazol-3-yl)propanamido)benzoic acid] | – | 2.1 µM | –
